Measurements: patent US8846411B2, “Derivatives, reagents, and immunoassay for detecting levetiracetam” (Microgenics Corporation, priority 2009, dated 2014)

Experiments:
[1] = cited from earlier work
[2] = system: anti-levetiracetam antibody prepared with immunogen 18a; experiment: Antibody avidity by ELISA binding inhibition study with levetiracetam; conditions: Sheep No. 5479 antibody
Protocol: The avidity of the anti-levetiracetam antibody prepared with immunogen 18a for various levetiracetam derivatives were determined by a binding inhibition study. Samples were prepared in 1 mL of PBS at pH 7.4 with 0.1% BSA. A composition having 30% Bmax titer or 50% Bmax titer was used to divide the titer value as obtained in Example 38 into approximately half the titer value. Using 30% Bmax, an antibody titer of 1:10000 was diluted to […] during the sample preparation stage. About 50 μL of levetiracetam at different concentrations or calibrator values, (0, 5, 10, 20, 40, 80 μg/ml) were applied to a plate as prepared in accordance with Example 38. About 50 μL of the diluted antibody was dispensed into the plate, and the compositions in the plate were mixed for 1 min on a horizontal plate shaker. No levetiracetam or anti-levetiracetam antibody was added to the first row of the plate, which served as a negative control. A second row with anti-levetiracetam antibody but without levetiracetam was used as the positive control. The plate was incubated for 60 min and washed three times with 250 μL of PBS at pH 7.4 with 0.05% Tween 20. About 125 μL of a diluted derivative such as 18b or 19 in PBS at pH 7.4 was added to each well of the plate. The plate was incubated for 60 min at 37° C. and washed as described above. Approximately 125 μL of ABTS substrate was added to each well of the plate and incubated for 20 min.

Row | SMILES | share of the administered dose accounted for by metabolite excreted in urine ([1]; urine, after administration of LEV) | B/Bo ([2]; Levetiracetam 5 μg/mL, Antigen 18b) | B/Bo ([2]; Levetiracetam 5 μg/mL, Antigen 19) | B/Bo ([2]; Levetiracetam 10 μg/mL, Antigen 18b) | B/Bo ([2]; Levetiracetam 10 μg/mL, Antigen 19) | B/Bo ([2]; Levetiracetam 20 μg/mL, Antigen 18b) | B/Bo ([2]; Levetiracetam 20 μg/mL, Antigen 19) | B/Bo ([2]; Levetiracetam 40 μg/mL, Antigen 18b) | B/Bo ([2]; Levetiracetam 40 μg/mL, Antigen 19) | B/Bo ([2]; Levetiracetam 80 μg/mL, Antigen 18b) | B/Bo ([2]; Levetiracetam 80 μg/mL, Antigen 19) | nominal therapeutic range ([1]; in vivo) [µg/mL] | optimal trough serum/plasma concentration range ([1]; trough, serum/plasma) [mg/L] | given dose excreted unchanged in urine ([1]; urine, elimination via the kidney)
1 | O=C(O)CCCN1CCCC1=O [2-pyrrolidone-N-butyric acid] | approximately 27% |  |  |  |  |  |  |  |  |  |  |  |  | 
2 | CC[C@@H](C(N)=O)N1CCCC1=O [Levetiracetam, (−)-(S)-α-ethyl-2-oxo-1-pyrrolidine acetamide] |  | 0.96 | 0.98 | 0.98 | 0.91 | 0.90 | 0.86 | 0.88 | 0.78 | 0.87 | 0.77 | 6 to 20 | 10 to 60 | approximately 64%
